Data from PMC11859423, “Fluorescent Probes to Image the KCa3.1 Channel in Tumor Cells” (Pharmaceutics, 2025).
Each block holds one molecule with its values, some of them ahead of it.

Legend:
[1] = UV-Vis absorption and time-resolved photoluminescence spectroscopy; assay type: physicochemical; settings: measured in H2O, c = 10^−5 M, 298 K
Procedure: All solvents used were of spectrometric grade (Uvasol®). UV-visible absorption spectra were measured using a Shimadzu UV–VIS spectrophotometer (UV-3600i). Photoluminescence quantum yields were measured with a Hamamatsu Photonics absolute PL quantum yield measurement system (C9920-02) equipped with a L9799-01 CW Xe light source (150 W), a monochromator, a C7473 photonic multi-channel analyzer, an integrating sphere and employing U6039-05 software, version 3.6.0. (Hamamatsu Photonics, Ltd., Shizuoka, Japan). Steady-state excitation and emission spectra were recorded on a FluoTime 300 spectrometer from PicoQuant equipped with a 300 W ozone-free Xe lamp (200–1100 nm), a 10 W Xe-flash lamp (200–1100 nm, pulse width ca. 1 µs) with repetition rates of 1–300 Hz, a double-grating excitation monochromator (Czerny–Turner type, grating with 1200 lines/mm, blaze wavelength: 300 nm), diode lasers (pulse width < 20 ps) operated by a computer-controlled laser driver PDL-828 “Sepia II” (repetition rate up to 80 MHz, burst mode for slow and weak decays), two emission monochromators (Czerny–Turner, selectable between double-grating blazed at 500 nm with 2.7 nm/mm dispersion and 1200 lines/mm, or single-grating blazed at 1250 nm with 5.4 nm/mm dispersion and 600 lines/mm) with adjustable slit width between 25 μm and 7 mm. Glam–Thompson polarizers for excitation (after the Xe-lamps) and emission (after the sample) were used. Different sample holders (Peltier-cooled mounting unit ranging from −15 to 110 °C or an adjustable front-face sample holder), along with two detectors (namely a PMA Hybrid-07 from PicoQuant with transit time spread FWHM < 50 ps, 200–850 nm, or a H10330C-45-C3 NIR detector with transit time spread FWHM 0.4 ns, 950–1400 nm from Hamamatsu) were used. Steady-state spectra and photoluminescence lifetimes were recorded in TCSPC mode by a PicoHarp 300 (minimum base resolution 4 ps) or in MCS mode by a TimeHarp 260 (where up to several ms can be traced). Emission and excitation spectra were corrected for source intensity (lamp and grating) by standard correction curves. For samples with lifetimes in the ns order, an instrument response function calibration (IRF) was performed using a diluted Ludox® dispersion. Lifetime analysis was performed using the commercial EasyTau 2 software, version 2.3. (PicoQuant, Berlin, Germany). The quality of the fit was assessed by minimizing the reduced chi squared function (χ^2) and visual inspection of the weighted residuals and their autocorrelation.
Fluorescence microscopy was used for the analysis of KCa3.1 channel labeling of cells with fluorescent dyes. Therefore, the photophysical properties of fluorescently labeled senicapoc derivatives 15a, 21a, and 22 were determined. Since the fluorophores are separated from the rest of the molecule by a linker, the photophysical properties could be recorded using azide precursors 6a, 6b, and 7a as well.

[2] = logD7.4 by micro shake flask method (n-octanol / MOPS buffer pH 7.4, LC-MS); assay type: physicochemical; settings: read-out: logD7.4 ± SD (Micro Shake Flask)
Procedure: The logD7.4 values were recorded using the micro shake flask method. In this method, the test compound is distributed between n-octanol and MOPS buffer pH 7.4, and the amount of the compound in the buffer layer is determined by mass spectrometry.
The new fluorescent dyes were designed to increase the polarity and reduce the non-specific labeling of lipophilic membranes of cells. Moreover, a higher polarity should lead to increased water solubility and thus improved handling of the dyes. The logD7.4 value was recorded as a measure of the polarity/lipophilicity using our recently published micro-shake flask method. According to this method, the amount of compound in the aqueous 3-morpholinopropanesulfonic acid (MOPS) buffer pH 7.4 was determined by LC-MS [31, 32].

[3] = target: T1, KCa3.1 channel in A549-3R cells (Homo sapiens, UniProt O15554); test: Staining of fixed A549-3R tumor cells (Protocol 1), fluorescence microscopy; assay type: cell-based; settings: 10 µM in PBS, 10 min, 4 °C, Protocol 1
T1 construct: the non-small cell lung cancer cell line A549-3R with a high expression of the KCa3.1 channel was employed; endogenous in cells; host or cells: A549-3R cells
Procedure: For the fixation of the cells, the DMEM medium was removed from the glass bottom dish after incubation for 24 h, and the cells were washed with 1 mL of PBS. Subsequently, 1 mL of 4% paraformaldehyde in PBS solution was added to the glass bottom dish and the mixture was incubated for 30 min at room temperature. Thereafter, the cells were washed five times with 1 mL of PBS and used for the cell staining experiments.
After fixation of the cells (Section 2.10.2), 300 µL of the 10 µM staining solution was added to the glass bottom dish. The cells were incubated for 10 min at 4 °C in a dark chamber. After incubation, the cells were washed five times with 1 mL of PBS and used subsequently for fluorescence microscopy.
An Axiovert 200 inverted microscope (Carl Zeiss AG, Jena, Germany) with a ×100 oil immersion objective and a digital camera (SPOT RT SE from Diagnostic Instruments Inc., Livingston, UK) were used. The camera was controlled by MetaVue software (version 6.3r6, Visitron, Germany). Two different filter sets were employed, the FITC filter set (Carl Zeiss Filter Set 10 bandwidth excitation filter 450–490, color splitter 510, bandpass filter 515–565) and the TRITC filter set (Carl Zeiss Filter Set 15, bandpass excitation filter 546/12, dichroic mirror 580, emission filter Long Pass 590).
Using the free imaging software ImageJ (1.53f51, NIH, USA), squares with an edge length of 50 × 50 pixels, corresponding to an area of 9 µm^2, were randomly placed in a cell and signals with Full Width at Half Maximum (FWHM) of ≤5 pixels (~300 nm) were counted as a KCa3.1 channel. For the evaluation, 7 squares were analyzed.
For the staining experiments, the non-small cell lung cancer cell line A549-3R with a high expression of the KCa3.1 channel was employed. An optimized staining protocol (Protocol 1) described previously was followed to analyze the imaging properties of the fluorescent probes. In brief, the 10 µM solution of the senicapoc–dye conjugate in PBS was added to adherent A549-3R cells in a glass bottom dish and the set-up was incubated for 10 min at 4 °C in a dark chamber. After careful washing, the cells were analyzed with a fluorescence microscope.
The images were analyzed with respect to size and density of the fluorescent dots. For this purpose, a square with a size of 50 × 50 pixels was randomly placed on the cell images using ImageJ. The intensities of the signals within the square were analyzed to calculate the Full Width at Half Maximum (FWHM) for each selected dot, which represents a measure for the signal size. For the accurate representation of a single KCa3.1 channel, the FWHM should be in the range of five pixels. Signals with a FWHM of ≤5 pixels within the square were regarded as labeled KCa3.1 channels and the number of identified channels was used to determine the density of the ion channels on the cells (Figure S8, Supplementary Materials).

[4] = logP by HPLC retention time correlation; assay type: physicochemical; settings: standardized reversed phase HPLC system
Procedure: The logP values were recorded using HPLC analysis. Thus, the retention time of the test compound in a standardized reversed phase HPLC system is correlated with the retention times of compounds with known logP values.
In addition to the logD7.4 values, the logP values of the fluorescent probes were recorded by HPLC, i.e., after calibration of the method, the retention times were correlated with the logP values or the compounds [33]. […] Fluorescein-labeled ligands 21a and 21b are considerably more polar than the corresponding bodipy-labeled senicapoc derivatives.

KCa3.1 channels = settings: read-out: IC50 (KCa3.1 channel); cited from earlier work
[5] = parameters: method as in PMID 36315933; settings: previously reported values; cited from earlier work
[6] = target: T1, KCa3.1 channel in A549-3R cells; parameters: method as in PMID 36315933; settings: previously reported; cited from earlier work

- Absorption λmax [1]: 496 nm
- Emission λmax [1]: 521 nm
- Stokes Shift [1]: 25 nm
- ΦF absolute quantum yield [1]: 0.32 ± 0.02
- τ photoluminescence lifetime [1]: 4.21 ± 0.02 ns
- logD [2]: 1.69 ± 0.04
- chromatographic logP ([4]; HPLC at pH 6.0): 1.5
Structure (SMILES): NC(=O)C(c1ccccc1)(c1ccc(F)cc1)c1ccc(OCCOCCNC(=S)Nc2ccc3c(c2)C(=O)OC32c3ccc(O)cc3Oc3cc(O)ccc32)cc1 (stereo not drawn) [21a, 2-[4-(2-{2-[3-(3′,6′-Dihydroxy-3-oxo-3H-spiro[[2]benzofuran-1,9′-xanthen]-5-yl)thioureido]ethoxy}ethoxy)phenyl]-2-(4-fluorophenyl)-2-phenylacetamide]
- staining pattern of fixed A549-3R tumor cells [3]: A weak green fluorescence of the membrane and an intense staining of the nucleus

Structure (SMILES): NC(=O)C(c1ccccc1)(c1ccc(F)cc1)c1ccc(F)cc1 [senicapoc]
- IC50 (KCa3.1 channels): 11 nM

- chromatographic logP [4]: 4.4
Structure (SMILES): CO[B-]1(F)n2c(C)cc(C)c2C(c2ccc(OCCOCCn3cc(COc4ccc(C(C(N)=O)(c5ccccc5)c5ccc(F)cc5)cc4)nn3)cc2)=C2C(C)=CC(C)=[N+]21 (stereo not drawn) [10a]
- logD7.4 ± SD (Micro Shake Flask) [5]: 4.60 ± 0.23
- staining properties [6]: promising staining properties

- chromatographic logP [4]: 5.4
Structure (SMILES): CC1=CC(C)=[N+]2C1=C(c1ccc(OCCOCCn3cc(COc4ccc(C(C(N)=O)(c5ccccc5)c5ccc(F)cc5)cc4)nn3)cc1)c1c(C)cc(C)n1[B-]2(F)F (stereo not drawn) [9a]
- logD7.4 ± SD (Micro Shake Flask) [5]: 4.73 ± 0.03
- staining properties [6]: promising staining properties
